Results published in US10139394B2, “Method for controlling cancer metastasis or cancer cell migration by modulating the cellular level of lysyl tRNA synthetase” (Medicinal Bioconvergence Research Center, priority 2008, dated 2018).

Experiments:
67LR = 67LR level in membrane and cytoplasm of A549 cells (Western blotting, flow cytometry); assay type: cell-based; conditions: membrane fraction, FIG. 13
Description: In FIG. 13, A549 cells were transfected with si-control or si-KRS and incubated in the absence and presence of laminin. The cells were then separated to cytoplasm and membrane fractions, and the levels of 67LR and KRS in each fraction were determined by Western blotting. Cadherin (cad) and hsp90 were used as the markers for plasma membrane and cytoplasm, respectively. In FIG. 14, the membrane-bound 67LR level in A549 cells was monitored by flow cytometry using anti-LR antibody (MLuC5). The cells were transfected with empty vector or KRS plasmid and incubated for 24 h (upper). […] In FIG. 15, A549 cells transfected with EV or KRS was selected with G418 for a week and cellular distribution of 67LR was determined by immunofluorescence staining with anti-LR antibody (MLuC5). […] In FIG. 16, A549 cells were treated with cycloheximide to inhibit de novo protein synthesis and the effect of KRS levels on 67LR level in membrane and cytoplasm was determined by Western blotting. In FIG. 17, the importance of KRS for cellular stability of 67LR was determined by pulse-chase experiment. […]
To address cell cycle, the cultivated cells were transfected or treated with the indicated vector or chemicals, fixed with 70% ethanol for 1 hr at 4° C. and washed with ice-cold PBS two times. […] For each sample, 20,000 cells were analyzed using Cell Quest Pro software. […]

MMP-2 = MMP-2 zymography; assay type: cell-based; conditions: A549 cells; laminin 10 μg/ml 24 hr; FIG. 19
Description: In FIG. 18, A549 cells were transfected with the indicated plasmids, incubated in the absence and presence of laminin and their effect on cell migration was determined by measuring the migrated cells in transwell chamber as described. The numbers of the cells passed through the membrane were counted and shown in each panel. The experiments were performed three times. In FIG. 19, the cells treated as above were used to determine MMP-2 activity and level by zymography and Western blotting, respectively. In FIG. 20, Breast carcinoma 4T-1 cells were transfected with the indicated siRNA and subcutaneously injected to the back of Balb/C mice. After 21 days, mouse lungs were isolated and tumor nodules over 1 mm in diameter were counted. In FIG. 21, two different 4T-1 cells stably expressing exogenously introduced KRS (KRS-1 and -2) were also inoculated as above and the tumor nodules were counted 30 days after injection. 4T-1 cells with empty vector were used as control. In FIG. 22, expression levels of KRS and 67LR in lung (upper) and breast (lower) cancer tissues were compared by immunohistochemical staining with their respective antibodies. 39 lung and 40 breast cancer tissues were subjected to immunohistochemical staining with anti-KRS and anti-67LR antibodies and their expression levels were compared with those in normal tissues (9 samples for each tissue). […]

“laminin: laminin (Engelbreth-Holm-Swarm murine sarcoma) from Sigma” was tested, and the 67LR level (67LR) was “increased” and the MMP-2 activity (MMP-2) was “enhanced”.
